Laboratory results: patent US20230085307A1, “PYRIDAZINONE COMPOUND AND HERBICIDE” (NISSAN CHEMICAL CORPORATION, priority 2019, published 2023)

Tests used:
lambsquarters [1] = test: Test Example 4: herbicidal effect by soil treatment (Table 19, symbol O); format: in vivo, lambsquarters (Chenopodium album); conditions: amount of applied herbicide 320 g/ha
Outline: (§1)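 In this soil treatment, the formulated compound reached the seeds only through the soil: seeds were buried about 1.5 cm deep in sterilized diluvial soil, then the diluted emulsion was sprayed over the surface. After three weeks at 25° C. to 30° C. in a greenhouse, effects were graded on criteria from an earlier test.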

Italian ryegrass [2] = test: Test Example 4: herbicidal effect by soil treatment (Table 19, symbol K); format: in vivo, Italian ryegrass (Lolium multiflorum); conditions: amount of applied herbicide 320 g/ha
Outline: as §1

persian speedwell [3] = test: Test Example 4: herbicidal effect by soil treatment (Table 19, symbol R); format: in vivo, Persian speedwell (Veronica persica); conditions: amount of applied herbicide 320 g/ha
Outline: as §1

persian speedwell [4] = test: Test Example 5: herbicidal effect by foliage application, plastic box (Table 20, symbol R); format: in vivo, Persian speedwell (Veronica persica); conditions: foliage application, AAH 320 g/ha, evaluated three weeks after application
Outline: (§2)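 Plants were sown into sterilized diluvial soil under about 1.5 cm cover and kept in a greenhouse at 25° C. to 30° C. Fourteen days on, foliage received an even spray of the diluted emulsion. Herbicidal or crop effect was judged three weeks afterwards.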

blackgrass [5] = test: Test Example 5: herbicidal effect by foliage application, plastic box (Table 20, symbol J); format: in vivo, blackgrass (Alopecurus myosuroides); conditions: foliage application, AAH 320 g/ha, evaluated three weeks after application
Outline: as §2

velvetleaf [6] = test: Test Example 5: herbicidal effect by foliage application, plastic box (Table 20, symbol M); format: in vivo, velvetleaf (Abutilon theophrasti); conditions: foliage application, AAH 320 g/ha, evaluated three weeks after application
Outline: as §2

chickweed [7] = test: Test Example 4: herbicidal effect by soil treatment (Table 19, symbol P); format: in vivo, common chickweed (Stellaria media); conditions: amount of applied herbicide 320 g/ha
Outline: as §1

redroot pigweed [8] = test: Test Example 4: herbicidal effect by soil treatment (Table 19, symbol N); format: in vivo, redroot pigweed (Amaranthus retroflexus); conditions: amount of applied herbicide 320 g/ha
Outline: as §1

rice flat sedge = test: Test Example 3: herbicidal effect by foliage application, Wagner pot (Table 18, symbol E); format: in vivo, rice flat sedge (Cyperus iria); conditions: amount of applied herbicide 320 g/ha
Outline: (§3)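 Plants were sown in alluvial soil held under 0.1–0.5 cm standing water and grown 14 days in a greenhouse at 25–30 °C. An emulsifiable formulation, water-diluted to the set dose, was then sprayed onto the foliage, and effects were scored three weeks later using previously defined criteria.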

blackgrass [9] = test: Test Example 4: herbicidal effect by soil treatment (Table 19, symbol J); format: in vivo, blackgrass (Alopecurus myosuroides); conditions: amount of applied herbicide 320 g/ha
Outline: as §1

windgrass [10] = test: Test Example 4: herbicidal effect by soil treatment (Table 19, symbol L); format: in vivo, windgrass (Apera spica-venti); conditions: amount of applied herbicide 320 g/ha
Outline: as §1

Chinese sprangletop = test: Test Example 3: herbicidal effect by foliage application, Wagner pot (Table 18, symbol D); format: in vivo, chinese sprangletop (Leptochloa chinensis); conditions: amount of applied herbicide 320 g/ha
Outline: as §3

lambsquarters [11] = test: Test Example 5: herbicidal effect by foliage application, plastic box (Table 20, symbol O); format: in vivo, lambsquarters (Chenopodium album); conditions: foliage application, AAH 320 g/ha, evaluated three weeks after application
Outline: as §2

southern crabgrass [12] = test: Test Example 4: herbicidal effect by soil treatment (Table 19, symbol F); format: in vivo, southern crabgrass (Digitaria ciliaris); conditions: amount of applied herbicide 320 g/ha
Outline: as §1

velvetleaf [13] = test: Test Example 4: herbicidal effect by soil treatment (Table 19, symbol M); format: in vivo, velvetleaf (Abutilon theophrasti); conditions: amount of applied herbicide 320 g/ha
Outline: as §1

wild oat [14] = test: Test Example 4: herbicidal effect by soil treatment (Table 19, symbol I); format: in vivo, wild oat (Avena fatua); conditions: amount of applied herbicide 320 g/ha
Outline: as §1

Italian ryegrass [15] = test: Test Example 5: herbicidal effect by foliage application, plastic box (Table 20, symbol K); format: in vivo, Italian ryegrass (Lolium multiflorum); conditions: foliage application, AAH 320 g/ha, evaluated three weeks after application
Outline: as §2

barnyard grass [16] = test: Test Example 4: herbicidal effect by soil treatment (Table 19, symbol H); format: in vivo, barnyard grass (Echinochloa crus-galli); conditions: amount of applied herbicide 320 g/ha
Outline: as §1

barnyard grass [17] = test: Test Example 5: herbicidal effect by foliage application, plastic box (Table 20, symbol H); format: in vivo, barnyard grass (Echinochloa crus-galli); conditions: foliage application, AAH 320 g/ha, evaluated three weeks after application
Outline: as §2

barnyard grass [18] = test: Test Example 3: herbicidal effect by foliage application, Wagner pot (Table 18, symbol H); format: in vivo, barnyard grass (Echinochloa crus-galli); conditions: amount of applied herbicide 320 g/ha
Outline: as §3

chickweed [19] = test: Test Example 5: herbicidal effect by foliage application, plastic box (Table 20, symbol P); format: in vivo, common chickweed (Stellaria media); conditions: foliage application, AAH 320 g/ha, evaluated three weeks after application
Outline: as §2

green foxtail [20] = test: Test Example 5: herbicidal effect by foliage application, plastic box (Table 20, symbol G); format: in vivo, green foxtail (Setaria viridis); conditions: foliage application, AAH 320 g/ha, evaluated three weeks after application
Outline: as §2

green foxtail [21] = test: Test Example 4: herbicidal effect by soil treatment (Table 19, symbol G); format: in vivo, green foxtail (Setaria viridis); conditions: amount of applied herbicide 320 g/ha
Outline: as §1

wild oat [22] = test: Test Example 5: herbicidal effect by foliage application, plastic box (Table 20, symbol I); format: in vivo, wild oat (Avena fatua); conditions: foliage application, AAH 320 g/ha, evaluated three weeks after application
Outline: as §2

windgrass [23] = test: Test Example 5: herbicidal effect by foliage application, plastic box (Table 20, symbol L); format: in vivo, windgrass (Apera spica-venti); conditions: foliage application, AAH 320 g/ha, evaluated three weeks after application
Outline: as §2

southern crabgrass [24] = test: Test Example 5: herbicidal effect by foliage application, plastic box (Table 20, symbol F); format: in vivo, southern crabgrass (Digitaria ciliaris); conditions: foliage application, AAH 320 g/ha, evaluated three weeks after application
Outline: as §2

redroot pigweed [25] = test: Test Example 5: herbicidal effect by foliage application, plastic box (Table 20, symbol N); format: in vivo, redroot pigweed (Amaranthus retroflexus); conditions: foliage application, AAH 320 g/ha, evaluated three weeks after application
Outline: as §2

Which “herbicidal effect on O: lambsquarters” value (lambsquarters [1]) does the source give for `C#CCOc1c(C)nn(C)c(=O)c1-c1c(-c2ccc(OC(F)F)cc2)sc2ccc(F)cc12` [2-301] here?
Its value is 0 (Herbicidal rate of 5% or less (almost no effect)).

And the “herbicidal effect on K: Italian ryegrass” value (Italian ryegrass [2])?
The value was 0 (Herbicidal rate of 5% or less (almost no effect)).

What about the “herbicidal effect on R: persian speedwell” value (persian speedwell [3]) of the same compound?
Its value is 3 (Herbicidal rate of 40% or more and less than 70%).

And the “R: persian speedwell, herbicidal effect (criteria 0-5)” value (persian speedwell [4])?
Its value is 5 (Herbicidal rate of 90% or more (almost completely withered)).

And the “J: blackgrass, herbicidal effect (criteria 0-5)” value (blackgrass [5])?
The value was 0 (Herbicidal rate of 5% or less (almost no effect)).

What about the “M: velvetleaf, herbicidal effect (criteria 0-5)” value (velvetleaf [6]) of the same compound?
The value was 5 (Herbicidal rate of 90% or more (almost completely withered)).

What about the “herbicidal effect on P: chickweed” value (chickweed [7]) of the same compound?
Its value is 0 (Herbicidal rate of 5% or less (almost no effect)).

And the “herbicidal effect on N: redroot pigweed” value (redroot pigweed [8])?
The value was 0 (Herbicidal rate of 5% or less (almost no effect)).

And the “herbicidal effect on E: rice flat sedge” value (rice flat sedge)?
Its value is 2 (Herbicidal rate of 20% or more and less than 40%).

What about the “herbicidal effect on J: blackgrass” value (blackgrass [9]) of the same compound?
Its value is 0 (Herbicidal rate of 5% or less (almost no effect)).

What about the “herbicidal effect on L: windgrass” value (windgrass [10]) of the same compound?
The value was 0 (Herbicidal rate of 5% or less (almost no effect)).

And the “herbicidal effect on D: Chinese sprangletop” value (Chinese sprangletop)?
The value was 0 (Herbicidal rate of 5% or less (almost no effect)).

What about the “O: lambsquarters, herbicidal effect (criteria 0-5)” value (lambsquarters [11]) of the same compound?
Its value is 5 (Herbicidal rate of 90% or more (almost completely withered)).

What about the “herbicidal effect on F: southern crabgrass” value (southern crabgrass [12]) of the same compound?
The value was 0 (Herbicidal rate of 5% or less (almost no effect)).

What about the “herbicidal effect on M: velvetleaf” value (velvetleaf [13]) of the same compound?
Its value is 0 (Herbicidal rate of 5% or less (almost no effect)).

What about the “herbicidal effect on I: wild oat” value (wild oat [14]) of the same compound?
Its value is 0 (Herbicidal rate of 5% or less (almost no effect)).

What about the “K: Italian ryegrass, herbicidal effect (criteria 0-5)” value (Italian ryegrass [15]) of the same compound?
Its value is 0 (Herbicidal rate of 5% or less (almost no effect)).

What about the “herbicidal effect on H: barnyard grass” value (barnyard grass [16]) of the same compound?
Its value is 0 (Herbicidal rate of 5% or less (almost no effect)).

What about the “H: barnyard grass, herbicidal effect (criteria 0-5)” value (barnyard grass [17]) of the same compound?
Its value is 0 (Herbicidal rate of 5% or less (almost no effect)).

And the “herbicidal effect on H: barnyard grass” value (barnyard grass [18])?
Its value is 3 (Herbicidal rate of 40% or more and less than 70%).

What about the “P: chickweed, herbicidal effect (criteria 0-5)” value (chickweed [19]) of the same compound?
Its value is 5 (Herbicidal rate of 90% or more (almost completely withered)).

What about the “G: green foxtail, herbicidal effect (criteria 0-5)” value (green foxtail [20]) of the same compound?
The value was 0 (Herbicidal rate of 5% or less (almost no effect)).

What about the “herbicidal effect on G: green foxtail” value (green foxtail [21]) of the same compound?
The value was 0 (Herbicidal rate of 5% or less (almost no effect)).

What about the “I: wild oat, herbicidal effect (criteria 0-5)” value (wild oat [22]) of the same compound?
The value was 0 (Herbicidal rate of 5% or less (almost no effect)).

And the “L: windgrass, herbicidal effect (criteria 0-5)” value (windgrass [23])?
Its value is 0 (Herbicidal rate of 5% or less (almost no effect)).

What about the “F: southern crabgrass, herbicidal effect (criteria 0-5)” value (southern crabgrass [24]) of the same compound?
Its value is 0 (Herbicidal rate of 5% or less (almost no effect)).

What about the “N: redroot pigweed, herbicidal effect (criteria 0-5)” value (redroot pigweed [25]) of the same compound?
The value was 3 (Herbicidal rate of 40% or more and less than 70%).
